Measured values: patent publication US4761419A, “6-(((substituted)quinolinyl)ethyl)-and ethenyl)tetrahydro-4-hydroxypyran-2-one inhibitors of cholesterol biosynthesis” (Warner-Lambert Company, priority 1987, dated 1988)
pIC50: −log10 of the molar value.

Test system: cholesterol biosynthesis (sterol synthesis, rat liver homogenate)
Assay: CSI screen: incorporation of 14C-acetate into nonsaponifiable lipid by rat liver homogenate (inhibition of cholesterol biosynthesis)
Type: biochemical
Settings: rat liver homogenate from cholestyramine-fed rats; inhibition of sterol synthesis over a one-hour period
Procedure: The ability of compounds of the present invention to inhibit the biosynthesis of cholesterol was measured by a method (designated CSI screen) which utilizes the procedure described by R. E. Dugan et al, Archiv. Biochem. Biophys., (1972), 152, 21-27. In this method, the level of HMG-CoA enzyme activity in standard laboratory rats is increased by feeding the rats a chow diet containing 5cholestyramine for four days, after which the rats are sacrificed.
The rat livers are homogenized, and the incorporation of 14C-acetate into nonsaponifiable lipid by the rat liver homogenate is measured. The micromolar concentration of compound required for 50inhibition of sterol synthesis over a one-hour period is measured, and expressed as an IC50 value.

Cc1nc2ccc(Cl)cc2c(-c2ccc(F)cc2)c1/C=C/[C@@H]1C[C@@H](O)CC(=O)O1 (relative stereo) [CHCH, 4-Fluorophenyl, CH3, H, Cl, H, H, [4α,6β(E)]-6[-2-[6-Chloro-4-(4-fluorophenyl)-2-methyl-3-quinolinyl]ethenyl]-tetrahydro-4-hydroxy-2H-pyran-2-one]
pIC50: 6.46

CC(C)c1nc2ccc(Cl)cc2c(-c2ccc(F)cc2)c1/C=C/[C@@H]1C[C@@H](O)CC(=O)O1 (relative stereo) [[4α,6β(E)]6-[2-[6-Chloro-4-(4-fluorophenyl)-2-(1-methylethyl)-3-quinolinyl]ethenyl]tetrahydro-4-hydroxy-2H-pyran-2-one]
pIC50: 7.49
